This experiment has as its target T1, BTK enzyme (recombinant full-length BTK, hBTK) (Homo sapiens, UniProt Q06187).
T1 construct: recombinant protein from baculovirus-transfected Sf9 cells: full-length BTK, 6HIS-tag cleaved; 6HIS (cleaved yes); made in house; host or cells: baculovirus-transfected Sf9 cells
Briefly: BTK enzyme activity assay, LANCE TR-FRET. In kind it is biochemical. The conditions noted are these: 50 pM hBTK, 2 μM biotin-A5-peptide, 25 μM ATP, 60 min compound & enzyme incubation. In general terms: Time-resolved FRET reads energy transfer from a long-lived donor to a nearby acceptor.

Where [1] appears, read: read-out: IC50 BTK activity value.

Where two headings read alike, the source gives them in different places.

T1 sequence (Q06187 whole entry): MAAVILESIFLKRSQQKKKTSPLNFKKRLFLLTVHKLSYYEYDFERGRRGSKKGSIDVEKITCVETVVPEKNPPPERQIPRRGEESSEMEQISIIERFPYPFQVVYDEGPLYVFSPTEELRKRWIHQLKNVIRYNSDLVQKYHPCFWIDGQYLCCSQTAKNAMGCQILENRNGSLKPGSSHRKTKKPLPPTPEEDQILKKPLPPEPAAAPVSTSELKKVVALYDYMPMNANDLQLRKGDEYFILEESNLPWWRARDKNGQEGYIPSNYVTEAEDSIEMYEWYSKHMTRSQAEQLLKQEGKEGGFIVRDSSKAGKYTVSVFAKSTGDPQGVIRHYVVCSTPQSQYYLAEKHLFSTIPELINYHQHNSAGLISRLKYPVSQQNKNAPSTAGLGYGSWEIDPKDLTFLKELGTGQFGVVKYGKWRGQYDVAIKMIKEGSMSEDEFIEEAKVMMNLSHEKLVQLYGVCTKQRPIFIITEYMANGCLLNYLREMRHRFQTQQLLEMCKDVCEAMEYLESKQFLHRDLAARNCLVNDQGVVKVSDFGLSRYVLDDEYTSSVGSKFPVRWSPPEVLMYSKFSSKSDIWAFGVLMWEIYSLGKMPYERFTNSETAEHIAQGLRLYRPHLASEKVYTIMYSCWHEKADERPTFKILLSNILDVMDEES

A word on the IC50: it is the point on the concentration scale where inhibition reaches its midpoint. As to `Nc1nccn2c([C@H]3CC[C@@H]4COC(=O)N4C3)nc(-c3ccc(C(=O)Nc4cc(C(F)(F)F)ccn4)cc3F)c12` (stereo in doubt) [Example 13, 4-(8-amino-3-((6S,8aR)-3-oxohexahydro-1H-oxazolo[3,4-a]pyridin-6-yl)imidazo[1,5-a]pyrazin-1-yl)-3-fluoro-N-(4-(trifluoromethyl)pyridin-2-yl)benzamide], the concentration for half-maximal inhibition (IC50) under setting [1] stood at 1.3 nM.

Turning to `Nc1nccn2c([C@H]3CC[C@H]4COC(=O)N4C3)nc(-c3ccc(C(=O)Nc4cc(C(F)(F)F)ccn4)cc3)c12` [Example 1, 4-(8-amino-3-((6S,8aS)-3-oxohexahydro-1H-oxazolo[3,4-a]pyridin-6-yl)imidazo[1,5-a]pyrazin-1-yl)-N-(4-(trifluoromethyl)pyridin-2-yl)benzamide], the IC50 (IC50 BTK activity value) came to 5.5 nM.

Consider `Nc1nccn2c([C@@H]3CC[C@@H]4COC(=O)N4C3)nc(-c3ccc(C(=O)Nc4cc(C(F)(F)F)ccn4)cc3)c12` [Example 2, 4-(8-amino-3-((6R,8aR)-3-oxohexahydro-1H-oxazolo[3,4-a]pyridin-6-yl)imidazo[1,5-a]pyrazin-1-yl)-N-(4-(trifluoromethyl)pyridin-2-yl)benzamide], for which, for the setting “IC50 BTK activity value”, the concentration for half-maximal inhibition (IC50) is 15.6 nM.

Consider `Nc1nccn2c([C@@H]3CC[C@H]4CCC(=O)N4C3)nc(-c3ccc(C(=O)Nc4cc(OC5CC5)ccn4)cc3)c12` [Example 5, 4-(8-amino-3-((6R,8aS)-3-oxooctahydroindolizin-6-yl)imidazo[1,5-a]pyrazin-1-yl)-N-(4-cyclopropoxypyridin-2-yl)benzamide], for which the IC50 under setting [1] worked out at 0.24 nM.

Regarding `Nc1nccn2c([C@@H]3CC[C@H]4CCC(=O)N4C3)nc(-c3ccc(C(=O)Nc4cc(C5CCC5)ccn4)cc3)c12` [Example 7, 4-(8-amino-3-((6R,8aS)-3-oxooctahydroindolizin-6-yl)imidazo[1,5-a]pyrazin-1-yl)-N-(4-cyclobutylpyridin-2-yl)benzamide], the half-maximal inhibitory concentration (IC50) under setting [1] stood at 60.6 nM.

Turning to `Nc1nccn2c([C@@H]3CC[C@H]4COC(=O)N4C3)nc(-c3ccc(C(=O)Nc4cc(C(F)(F)F)ccn4)cc3F)c12` [Example 12, 4-(8-amino-3-((6R,8aS)-3-oxohexahydro-1H-oxazolo[3,4-a]pyridin-6-yl)imidazo[1,5-a]pyrazin-1-yl)-3-fluoro-N-(4-(trifluoromethyl)pyridin-2-yl)benzamide], the IC50 under setting [1] worked out at 0.083 nM.

As for `Nc1nccn2c([C@@H]3CC[C@H]4CCC(=O)N4C3)nc(-c3ccc(C(=O)Nc4cc(C(F)F)ccn4)cc3F)c12` [Example 14, 4-{8-amino-3-[(6R,8aS)-3-oxooctahydroindolizin-6-yl]imidazo[1,5-a]pyrazin-1-yl}-N-[4-(difluoromethyl)pyridin-2-yl]-3-fluorobenzamide], the 50% inhibitory concentration (IC50) under setting [1] worked out at 0.12 nM.

With `Nc1nccn2c([C@@H]3CC[C@H]4CCC(=O)N4C3)nc(-c3ccc(C(=O)Nc4cc(C(F)F)ccn4)cc3)c12` [Example 17], the IC50 under setting [1] stood at 0.31 nM.

Take `Cc1cc(-c2nc([C@@H]3CC[C@H]4CCC(=O)N4C3)n3ccnc(N)c23)ccc1C(=O)Nc1cc(C(F)(F)F)ccn1` [Example 22, 4-{8-amino-3-[(6R,8aS)-3-oxooctahydroindolizin-6-yl]imidazo[1,5-a]pyrazin-1-yl}-2-methyl-N-[4-(trifluoromethyl)pyridin-2-yl]benzamide]: the IC50 under setting [1] came to 0.41 nM.

With `CC(F)(F)c1ccnc(NC(=O)c2ccc(-c3nc([C@@H]4CC[C@H]5CCC(=O)N5C4)n4ccnc(N)c34)cc2F)c1` [Example 25, 4-{8-amino-3-[(6R,8aS)-3-oxooctahydroindolizin-6-yl]imidazo[1,5-a]pyrazin-1-yl}-N-[4-(1,1-difluoroethyl)pyridin-2-yl]-2-fluorobenzamide], the IC50 under setting [1] is 0.54 nM.

As for `Nc1nccn2c([C@@H]3CC[C@H]4CCC(=O)N4C3)nc(-c3ccc(C(=O)Nc4cc(C(F)F)ccn4)c(F)c3)c12` [Example 26, 4-{8-amino-3-[(6R,8aS)-3-oxooctahydroindolizin-6-yl]imidazo[1,5-a]pyrazin-1-yl}-N-[4-(difluoromethyl)pyridin-2-yl]-2-fluorobenzamide], the IC50 under setting [1] was 1.5 nM.

`Nc1nccn2c([C@@H]3CC[C@H]4CCC(=O)N4C3)nc(-c3ccc(C(=O)Nc4cc(C5CC5)ccn4)c(F)c3)c12` [Example 27, 4-{8-amino-3-[(6R,8aS)-3-oxooctahydroindolizin-6-yl]imidazo[1,5-a]pyrazin-1-yl}-N-(4-cyclopropylpyridin-2-yl)-2-fluorobenzamide]: the IC50 under setting [1] stood at 1.1 nM.

Regarding `Cc1cc(-c2nc([C@@H]3CC[C@H]4CCC(=O)N4C3)n3ccnc(N)c23)ccc1C(=O)Nc1cc(C2CC2)ccn1` [Example 28, 4-{8-amino-3-[(6R,8aS)-3-oxooctahydroindolizin-6-yl]imidazo[1,5-a]pyrazin-1-yl}-N-(4-cyclopropylpyridin-2-yl)-2-methylbenzamide], under setting [1], the IC50 was found to be 0.64 nM.

As to `Nc1nccn2c([C@@H]3CC[C@H]4CCC(=O)N4C3)nc(-c3ccc(C(=O)Nc4cc(C5(F)COC5)ccn4)cc3)c12` [Example 29, 4-{8-amino-3-[(6R,8aS)-3-oxooctahydroindolizin-6-yl]imidazo[1,5-a]pyrazin-1-yl}-N-[4-(3-fluorooxetan-3-yl)pyridin-2-yl]benzamide], under setting [1], the IC50 amounted to 1.9 nM.

In the case of `CC(C)(F)c1ccnc(NC(=O)c2ccc(-c3nc([C@@H]4CC[C@H]5CCC(=O)N5C4)n4ccnc(N)c34)cc2)c1` [Example 30, 4-{8-amino-3-[(6R,8aS)-3-oxooctahydroindolizin-6-yl]imidazo[1,5-a]pyrazin-1-yl}-N-[4-(1-fluoro-1-methylethyl)pyridin-2-yl]benzamide], the IC50 under setting [1] turned out to be 0.85 nM.

For the molecule `C[C@H]1OC(=O)N2C[C@H](c3nc(-c4ccc(C(=O)Nc5cc(C6CC6)ccn5)cc4F)c4c(N)nccn34)CC[C@@H]12` [Example 32, 4-{8-amino-3-[(1R,6R,8aS)-1-methyl-3-oxohexahydro[1,3]oxazolo[3,4-a]pyridin-6-yl]imidazo[1,5-a]pyrazin-1-yl}-N-(4-cyclopropylpyridin-2-yl)-3-fluorobenzamide], the concentration for half-maximal inhibition (IC50) under setting [1] worked out at 0.21 nM.

Turning to `N#Cc1ccnc(NC(=O)c2ccc(-c3nc([C@@H]4CC[C@H]5CCC(=O)N5C4)n4ccnc(N)c34)cc2F)c1` [Example 34, 4-{8-amino-3-[(6R,8aS)-3-oxooctahydroindolizin-6-yl]imidazo[1,5-a]pyrazin-1-yl}-N-(4-cyanopyridin-2-yl)-2-fluorobenzamide], the IC50 under setting [1] came out at 2.5 nM.

On to `COc1cc(C(=O)Nc2cc(C#N)ccn2)ccc1-c1nc([C@@H]2CC[C@H]3CCC(=O)N3C2)n2ccnc(N)c12` [Example 35, 4-{8-amino-3-[(6R,8aS)-3-oxooctahydroindolizin-6-yl]imidazo[1,5-a]pyrazin-1-yl}-N-(4-cyanopyridin-2-yl)-3-methoxybenzamide], for which, under setting [1], the IC50 came to 1.1 nM.

On to `Cc1cc(-c2nc([C@@H]3CC[C@H]4CCC(=O)N4C3)n3ccnc(N)c23)ccc1C(=O)Nc1cc(C#N)ccn1` [Example 36, 4-{8-amino-3-[(6R,8aS)-3-oxooctahydroindolizin-6-yl]imidazo[1,5-a]pyrazin-1-yl}-N-(4-cyanopyridin-2-yl)-2-methylbenzamide], for which, under setting [1], the IC50 amounted to 0.98 nM.

`C[C@@H]1OC(=O)N2C[C@H](c3nc(-c4ccc(C(=O)Nc5cc(C6CC6)ccn5)cc4F)c4c(N)nccn34)CC[C@@H]12` [Example 37, 4-{8-amino-3-[(1S,6R,8aS)-1-methyl-3-oxohexahydro[1,3]oxazolo[3,4-a]pyridin-6-yl]imidazo[1,5-a]pyrazin-1-yl}-N-(4-cyclopropylpyridin-2-yl)-3-fluorobenzamide]: the IC50 under setting [1] turned out to be 0.39 nM.

As to `Nc1nccn2c([C@@H]3CC[C@H]4CCC(=O)N4C3)nc(-c3ccc(C(=O)Nc4cc(OC5CC5)ccn4)cc3F)c12` [Example 43, 4-{8-amino-3-[(6R,8aS)-3-oxooctahydroindolizin-6-yl]imidazo[1,5-a]pyrazin-1-yl}-N-[4-(cyclopropyloxy)pyridin-2-yl]-3-fluorobenzamide], the IC50 under setting [1] was 0.13 nM.

Regarding `Nc1nccn2c([C@@H]3CC[C@@H]4CNCC(=O)N4C3)nc(-c3ccc(C(=O)Nc4cc(C(F)(F)F)ccn4)cc3)c12` [Example 54, 4-{8-amino-3-[(7R,9aR)-4-oxooctahydro-2H-pyrido[1,2-a]pyrazin-7-yl]imidazo[1,5-a]pyrazin-1-yl}-N-[4-(trifluoromethyl)pyridin-2-yl]benzamide], the IC50 under setting [1] worked out at 9.6 nM.

Turning to `Nc1nccn2c([C@@H]3CC[C@H]4COCCN4C3)nc(-c3ccc(C(=O)Nc4cc(C(F)(F)F)ccn4)cc3)c12` [Example 55, 4-{8-amino-3-[(7R,9aS)-octahydropyrido[2,1-c][1,4]oxazin-7-yl]imidazo[1,5-a]pyrazin-1-yl}-N-[4-(trifluoromethyl)pyridin-2-yl]benzamide], under setting [1], the half-inhibitory concentration (IC50) worked out at 0.3 nM.

Consider `C[C@@H]1CC(=O)N2C[C@H](c3nc(-c4ccc(C(=O)Nc5cc(C(F)(F)F)ccn5)cc4)c4c(N)nccn34)CC[C@@H]12` [Example 62, 4-{8-amino-3-[(1R,6R,8aS)-1-methyl-3-oxooctahydroindolizin-6-yl]imidazo[1,5-a]pyrazin-1-yl}-N-[4-(trifluoromethyl)pyridin-2-yl]benzamide], for which the IC50 under setting [1] was 6.7 nM.

For the molecule `Nc1nccn2c([C@@H]3CC[C@@H]4C[C@H](O)C(=O)N4C3)nc(-c3ccc(C(=O)Nc4cc(C(F)(F)F)ccn4)cc3)c12` [Example 75, 4-{8-amino-3-[(2S,6R,8aR)-2-hydroxy-3-oxooctahydroindolizin-6-yl]imidazo[1,5-a]pyrazin-1-yl}-N-[4-(trifluoromethyl)pyridin-2-yl]benzamide], the IC50 under setting [1] came to 7.6 nM.

In the case of `CC(C)(C(=O)O)N1CC(=O)N2C[C@H](c3nc(-c4ccc(C(=O)Nc5cc(C(F)(F)F)ccn5)cc4)c4c(N)nccn34)CC[C@H]2C1` [Example 86, 2-((7R,9aS)-7-(8-amino-1-(4-((4-(trifluoromethyl)pyridin-2-yl)carbamoyl)phenyl)imidazo[1,5-a]pyrazin-3-yl)-4-oxohexahydro-1H-pyrido[1,2-a]pyrazin-2(6H)-yl)-2-methylpropanoic acid], under setting [1], the concentration for half-maximal inhibition (IC50) is 0.45 nM.

The values above are taken from patent US20140206681A1, “BTK INHIBITORS” (priority 2013, published 2014).
